Measurements taken from US20150250765A1, “NITAZOXANIDE AND MEBENDAZOLE SYNERGIC COMPOSITION, PROCESSES FOR THE PREPARATION THEREOF, AND USE OF SAID COMPOSITION FOR THE TREATMENT OF HUMAN PARASITOSIS” (priority 2012, published 2015).

Key:
[1] = test system: L4 helminth larvae; assay: scale of larval motility; type: cell-based, trichuris spp; design: key: 0=death; 1=very low motility; 2=low motility; 3=normal motility; conditions: L4 helminth larvae in culture with drug; scale 0 to 3 points
Method: The rats of the Sprague-Dawley vivarium strain, parasites naive, were infected with different kinds of […]. Trichuria trichuris infected eggs). Approximately 3 g of feces were placed in culture bottles. The feces were cultured to produce worms or larvae (L4 stage) at a temperature of 37° C. for 72 hours. In order to determine the in vitro anthelmintic effectiveness the larval migration inhibition test was used. […] The tubes were incubated at 37° C. for 16 hours. The total content of these tubes, 0.5 ml, was transferred to the filters located within the acrylic tubes and grown at room temperature for 18 hours to allow the larvae to migrate through the filters within the chamber. Then, the filters were removed from the chambers and the total number of larvae in the filters and in chambers was counted. 2) Another method for the larval motility assessment was using the “scale of larval motility” in the various tubes with the different drugs and the control group. The scale of motility is a scale from 0 to 3 points, wherein 0=death; 1=very low motility; 2=low motility and 3=normal motility.

[2] = test system: Giardia intestinalis trophozoites; assay: in vitro antiprotozoal effectiveness in intestinal Giardia culture (morphology, adhesion, viability of trophozoites); conditions: for Mobility Ranking / Ranking of trophozoites adhesion: 2 μg/ml (combination 1 + 1 μg/ml)
Method: 1) The in vitro antiprotozoal effectiveness of the pharmaceutical combination of NTZX with […] was determined in an intestinal Giardia culture as compared with the NTZX and MBDZ active ingredients separately. In this study the morphology, the adhesion and the viability of the Giardias trophozoites was assessed in in vitro cultures.
The antiparasitic agents used were NTZX at a 2 μg/ml concentration; MBDZ at a 2 μg/ml concentration and a pharmaceutical combination of 1 μg/ml NTZX and 1 μg/ml MBDZ. The trophozoites were obtained from the intestines of rats (Sprague-Dawley vivarium strain) previously infected with Giardia intestinalis.
The trophozoites were isolated in a BI-S33 culture media containing 10% bovine serum without added antibiotic. From this media, 4.5 ml were extracted, which were separated in 8 glass tubes with screw caps. […] 4 of the tubes were exposed to the drugs for 4 hours and the other 4 tubes were exposed to the drugs for 24 hours. After the established periods of time were over (4 to 24 hours) the tubes underwent centrifugation (5 minutes at 500 rpm), where the supernatant was extracted and removed. The decanted material was then dyed with a 0.1% eosin solution to assess the viability of trophozoites: • a. The adhesion and growth uniformity of trophozoites was assessed, using an optical microscope in 5-10 fields (×100 and ×200). For this, a table was drafted describing the following:
• b. The trophozoites viability rate was assessed, by using a Neubauer camera to the optical microscope. The percentage of non-viable trophozoites was estimated as compared with the total state of trophozoites (live and immobile). • c. The mobility and morphology of the trophozoites was assessed. Mobility is divided into:
The normal morphology of trophozoites under the optical microscope is characterized by the following: unicellular organism, with pyriform morphology, bilateral symmetry, flagellated, bi-nucleated (vacuolar complex) on its dorsal face. Any change in morphology was correspondingly detailed.

[3] = test system: L4 (larva or adult worm) of different kinds of helminths (eg. trichuris spp); assay: inhibition of larval migration test; type: cell-based; conditions: 100 μg/ml (combination: 50 μg/ml NTZX and 50 μg/ml MBDZ), 16 hours at 37° C., then 18 hours migration
From the text: 1) In order to determine the in vitro anthelmintic effectiveness of the pharmaceutical combination of NTZX and MBDZ the “inhibition of larval migration test” was used, which was developed by […] et al. (1992) and modified by Rable et al. (1994) and Paolini et al. 2004). […] The rats of the Sprague-Dawley vivarium strain, parasites naive, were infected with different kinds of […]. Trichuria trichuris infected eggs). Approximately 3 g of feces were placed in culture bottles. The feces were cultured to produce worms or larvae (L4 stage) at a temperature of 37° C. for 72 hours. In order to determine the in vitro anthelmintic effectiveness the larval migration inhibition test was used. […] The tubes were incubated at 37° C. for 16 hours. The total content of these tubes, 0.5 ml, was transferred to the filters located within the acrylic tubes and grown at room temperature for 18 hours to allow the larvae to migrate through the filters within the chamber. Then, the filters were removed from the chambers and the total number of larvae in the filters and in chambers was counted. The larval migration inhibition (LMI) was determined using the following formula: [formula] Wherein A=larvae migrated ratio in the control and B=larvae migrated ratio in the treatments.

[4] = 24 hours of exposure, optical microscope

Compound | Motility scale [1] | Mobility Ranking ([2]; 4 hours of drug exposure) | Ranking of trophozoites adhesion ([2]; 4 hours of drug exposure) | Mobility Ranking ([2]; 24 hours of drug exposure) | Ranking of trophozoites adhesion ([2]; 24 hours of drug exposure) | adhered trophozoites (in words) [2, 4] | microscopic morphological changes of trophozoites [2, 4] | mobility of trophozoites (in words) [2, 4] | larval migration inhibition (LMI) [3] | parasites migration [3] | inhibition at 100 µg/mL ([3]; Trichuris, read-out: larval migration inhibition (LMI))
CC(=O)Oc1ccccc1C(=O)Nc1ncc([N+](=O)[O-])s1 [NTZX, Nitazoxanide] | 2 | 2 | 5 (50-100) | 1 | 7 (250-500) | The amount of adhered trophozoites was moderate | globular trophozoites (very enlarged), a moderate amount of folded trophozoites and partial loss of dorsal vacuolar complex | A low number of motile trophozoites (mostly in situ) and erratic movements | 60% | 40% | –
COC(=O)Nc1nc2ccc(C(=O)c3ccccc3)cc2[nH]1 [MBDZ, Mebendazole] | 1 | 2 | 4 (25-50) | 1 | 5 (50-100) | – | some trophozoites were globular, some folded, some of distorted forms (partial loss of bilateral symmetry) | – | – | 30% | 70%
